Test results: PMC11582173, “Synthesis, cytotoxicity, anti-inflammatory, anti-metastatic and anti-oxidant activities of novel chalcones incorporating 2-phenoxy-N-arylacetamide and thiophene moieties: induction of apoptosis in MCF7 and HEP2 cells” (Naunyn-Schmiedeberg's Archives of Pharmacology, 2024)
“And” between values parts separate entries of the source, which are not always exact repeats. Equal values may be shown once.

Tested on: BAX
Experiment: ELISA, BAX concentration
Assay type: cell-based, human
Method: The concentrations of matrix metalloproteinase-2 (MMP2), matrix metalloproteinase-9 (MMP9), Bcl2, BAX, P53, Malondialdehyde (MDA), Glutathione (GSH), caspase 8, caspase 9 and IL-6 were measured quantitatively in 5c treated MCF7 and HEP2 cells using ELISA (Enzyme-Linked Immunosorbent Assay) (Table 4). Gelatinases are a collective word for MMP-2 and MMP-9, where MMP-2 is gelatinase-A and MMP-9 is gelatinase-B. Solid tumor invasion, metastasis, and angiogenesis have long been linked to gelatinases (Das et al. [2021]). […] Bcl2 is a crucial protein that targets apoptosis inhibition. It is regarded as a predictive biomarker or therapeutic target in the diagnosis of cancer due to its broad expression in a variety of cancers (Porter et al. [2009]). […] The pro-apoptotic protein BAX permeabilizes the mitochondrial outer membrane by changing from a cytosolic monomer to a hazardous oligomer triggering the apoptosis process (Fulda and Debatin [2006]). […] P53 transcription factor performs an essential tumor suppressor role by coordinating a wide range of physiological responses, including DNA repair, cell cycle arrest, cellular senescence, cell death, cell differentiation, and metabolism (Liebl and Hofmann [2021]). It was activated in MCF7 and HEP2-treated cells with values (4.28 and 3.109 ng/mL), respectively, compared to their controls (3.44 and 2.06 ng/mL). […]

COc1ccc(NC(=O)COc2ccc(C=CC(=O)c3cccs3)cc2)cc1 [Compound 5c, N-(4-Methoxyphenyl)-2-(4-(3-oxo-3-(thiophen-2-yl)prop-1-en-1-yl)phenoxy)acetamide]
BAX concentration (5c treated HEP2 cells, untreated 1261.8±7.38): 1342.8 pg/mL and 1342.8 ± 12.7 pg/mL | BAX concentration (5c treated MCF7 cells, untreated 946.30±12.7): 1099.36 pg/mL and 1099.36 ± 12.8 pg/mL
